PMC9412362, “Design, Synthesis, and Characterization of Novel Coordination Compounds of Benzimidazole Derivatives with Cadmium” (Pharmaceutics, 2022)
≈ marks a conversion by molar mass, not a printed value.

Tests used:
P. mirabilis ATCC 12453 = assay: MIC, micro-dilution broth method; assay type: cell-based, Proteus mirabilis; conditions: for MIC: Proteus mirabilis, ATCC12453, Gram-negative bacteria
Description: (§1) Samples of complexes (about 20 mg) were digested in a concentrated mixture of 36% HCl (1 mL) and 65% HNO3 (6 mL). The contents of Cd (II) in the solid complexes were determined with an F-AAS spectrometer (Analytik Jena, contraAA 300, Jena, Germany) with a continuous source of light and using an air/acetylene flame (Analytik Jena, contraAA 300). Absorbances were measured at the analytical spectral lines at 228.8 nm for Cd (II). The limit of quantification was 0.004 mg/L for Cd (II). The solid samples were decomposed using an Anton Paar Multiwave 3000 (Graz, Austria) closed-system instrument. Mineralization was carried out for 45 min at 240 °C under a pressure of 60 bar. The contents of carbon, hydrogen, and nitrogen were determined with an instrument from Vario Micro Company Elementar Analysensysteme GmbH (Langenselbold, Germany). FTIR spectra were recorded with an IR Tracer-100 Schimadzu Spectrometer (4000–600 cm^−1 with an accuracy of recording of 1 cm^−1, Kyoto, Japan) using KBr pellets. The thermal analyses were carried out with a Netzsch STA 449 F1 Jupiter thermoanalyzer (Netzsch-Geratebau GmbH, Selb, Germany) coupled with a Netzsch Aeolos Quadro QMS 403 mass spectrometer (Netzsch-Geratebau GmbH, Selb, Germany). The samples were heated up to 1000 °C in corundum crucibles with a heating rate of 10 °C/min in an atmosphere of synthetic air (20% O2, 80% N2). The cytotoxic effects of the compounds were evaluated using glioblastoma (T98G), neuroblastoma (SK-N-AS), and lung adenocarcinoma (A549) cell lines and normal human skin fibroblasts (CCD-1059Sk). T98G and SK-N-AS cells were cultured in high-glucose DMEM and A549 cells were cultured in DMEM/F12, while CCD-1059Sk cells were cultured in MEM. All media were supplemented with 10% (FBS), 100 U/mL of penicillin, and […] of streptomycin (PenStrep). Cells were incubated at 37 °C in a humidified atmosphere of 5% CO2. Stock solutions were prepared by dissolving the compounds in sterile dimethyl sulfoxide (DMSO) to obtain a concentration of 50 mg/mL. The cells were seeded into sterile 96-well plates (Nunc) at a density of 1 × 10^5 cells/mL. After 24 h of incubation, the medium was removed from each well, and then the cells were incubated for the next 24 h with different concentrations of the tested compounds (1–100 µg/mL) in their respective media containing 2% FBS. The cytotoxicity of the compounds was evaluated using an MTT assay, which was based on the conversion of 3-(4,5-dimethylthiazol-2-yl)-2,5-diphenyltetrazolium bromide (MTT) into dark-blue formazan crystals. Briefly, after 24 h of incubation of the cells with varying concentrations of the tested compounds, all culture media were removed from the plates. The cells were washed with PBS, and then 100 µL of medium containing 10% MTT solution (5 mg/mL) was added to each well. After 3 h of incubation, 100 µL (per well) of 10% SDS buffer solution was added to solubilize the formazan crystals. After overnight incubation, the absorbance was measured at 570 nm using a microplate reader (Epoch, BioTek Instruments). Experiments were repeated twice, and the measurements in each experiment were run in triplicate. The viability of the investigated cells was expressed as the percentage of the viability of the untreated cells, and the results were transformed into IC50 values (expressed as mean ± SD). The complexes were screened for antibacterial and antifungal activity by using the micro-dilution broth method with Mueller–Hinton broth for the growth of bacteria or Mueller–Hinton broth with 2% glucose for the growth of fungi. […]

[1] = system: S. epidermidis ATCC 12228; assay: MIC, micro-dilution broth method; assay type: cell-based, Staphylococcus epidermidis; conditions: Gram-positive bacteria, micro-dilution broth; for MIC: Staphylococcus epidermidis, ATCC12228, read-out: MIC, S. epidermidis ATCC 12228
Description: as §1

B. subtilis ATCC 6633 = assay: MIC, micro-dilution broth method; assay type: cell-based, Bacillus subtilis; conditions: Gram-positive bacteria, micro-dilution broth; for MIC: Bacillus subtilis, ATCC6633, read-out: MIC, B. subtilis ATCC 6633
Description: as §1

[2] = system: S. typhimurium ATCC 14028; assay: MIC, micro-dilution broth method; assay type: cell-based, Salmonella Typhimurium; conditions: Gram-negative bacteria; for MIC: Salmonella enterica
Description: as §1

P. aeruginosa ATCC 9027 = assay: MIC, micro-dilution broth method; assay type: cell-based, Pseudomonas aeruginosa; conditions: for MIC: Pseudomonas aeruginosa, ATCC9027, Gram-negative bacteria
Description: as §1

M. luteus ATCC 10240 = assay: MIC, micro-dilution broth method; assay type: cell-based, Micrococcus luteus; conditions: Gram-positive bacteria, micro-dilution broth; for MIC: Micrococcus luteus, ATCC10240, read-out: MIC, M. luteus ATCC 10240
Description: as §1

C. glabrata ATCC 2091 = assay: MIC, micro-dilution broth method; assay type: cell-based; conditions: for MIC: Nakaseomyces glabratus, ATCC2091, read-out: MIC, C. glabrata ATCC 2091
Description: as §1

B. cereus ATCC 10876 = assay: MIC, micro-dilution broth method; assay type: cell-based, Bacillus cereus; conditions: Gram-positive bacteria, micro-dilution broth; for MIC: Bacillus cereus, ATCC10876, read-out: MIC, B. cereus ATCC 10876
Description: as §1

S. aureus ATCC 25923 = assay: MIC, micro-dilution broth method; assay type: cell-based, Staphylococcus aureus; conditions: Gram-positive bacteria, micro-dilution broth; for MIC: Staphylococcus aureus, ATCC25923, read-out: MIC, S. aureus ATCC 25923
Description: as §1

E. faecalis ATCC 29212 = assay: MIC, micro-dilution broth method; assay type: cell-based, Enterococcus faecalis; conditions: Gram-positive bacteria, micro-dilution broth; for MIC: Enterococcus faecalis, ATCC29212, read-out: MIC, E. faecalis ATCC 29212
Description: as §1

C. albicans ATCC 102231 = assay: MIC, micro-dilution broth method; assay type: cell-based, Candida albicans; conditions: for MIC: Candida albicans, ATCC102231, read-out: MIC, C. albicans ATCC 102231
Description: as §1

[3] = Solubility in culture medium (MTT assay); assay type: physicochemical; conditions: culture medium of the MTT assay
Description: Samples of complexes (about 20 mg) were digested in a concentrated mixture of 36% HCl (1 mL) and 65% HNO3 (6 mL). The contents of Cd (II) in the solid complexes were determined with an F-AAS spectrometer (Analytik Jena, contraAA 300, Jena, Germany) with a continuous source of light and using an air/acetylene flame (Analytik Jena, contraAA 300). Absorbances were measured at the analytical spectral lines at 228.8 nm for Cd (II). The limit of quantification was 0.004 mg/L for Cd (II). The solid samples were decomposed using an Anton Paar Multiwave 3000 (Graz, Austria) closed-system instrument. Mineralization was carried out for 45 min at 240 °C under a pressure of 60 bar. The contents of carbon, hydrogen, and nitrogen were determined with an instrument from Vario Micro Company Elementar Analysensysteme GmbH (Langenselbold, Germany). FTIR spectra were recorded with an IR Tracer-100 Schimadzu Spectrometer (4000–600 cm^−1 with an accuracy of recording of 1 cm^−1, Kyoto, Japan) using KBr pellets. […] The cytotoxic effects of the compounds were evaluated using glioblastoma (T98G), neuroblastoma (SK-N-AS), and lung adenocarcinoma (A549) cell lines and normal human skin fibroblasts (CCD-1059Sk). […] The cytotoxicity of the compounds was evaluated using an MTT assay, which was based on the conversion of 3-(4,5-dimethylthiazol-2-yl)-2,5-diphenyltetrazolium bromide (MTT) into dark-blue formazan crystals. […]

[4] = system: C. parapsilosis ATCC 22019; assay: MIC, micro-dilution broth method; assay type: cell-based, Candida parapsilosis; conditions: Yeasts, micro-dilution broth with 2% glucose; for MIC: Lodderomyces parapsilosis, ATCC22019
Description: as §1

K. pneumoniae ATCC 13883 = assay: MIC, micro-dilution broth method; assay type: cell-based, Klebsiella pneumoniae; conditions: for MIC: Klebsiella pneumoniae, ATCC13883, Gram-negative bacteria
Description: as §1

E. coli ATCC 25922 = assay: MIC, micro-dilution broth method; assay type: cell-based, Escherichia coli; conditions: for MIC: Escherichia coli, ATCC25922, Gram-negative bacteria
Description: as §1

SK-N-AS cells = assay: MTT cytotoxicity assay, neuroblastoma SK-N-AS; assay type: cell-based, human; conditions: Homo sapiens, SK-N-AS, 24 h, MTT assay after 24 h of incubation, read-out: IC50 ± SD, SK-N-AS
Description: as §1

CCD-1059Sk cells = assay: MTT cytotoxicity assay, normal human skin fibroblasts CCD-1059Sk; assay type: cell-based; conditions: normal human fibroblasts CCD-1059Sk, MTT assay after 24 h of incubation; read-out: IC50 ± SD, CCD-1059-Sk
Description: as §1

T98G cells = assay: MTT cytotoxicity assay, glioblastoma T98G; assay type: cell-based, human; conditions: Homo sapiens, MTT assay after 24 h of incubation, read-out: IC50 ± SD, T98G
Description: as §1

A549 cells = assay: MTT cytotoxicity assay, lung adenocarcinoma A549; assay type: cell-based, human; conditions: Homo sapiens; lung carcinoma A549, MTT assay after 24 h of incubation; read-out: IC50 ± SD, A549
Description: as §1

[5] = Yeasts, micro-dilution broth with 2% glucose

SMILES | MIC (P. mirabilis ATCC 12453) [µg/mL] | MIC [1] [µg/mL] | IC50 (SK-N-AS cells) [µM] | MIC (B. subtilis ATCC 6633) [µg/mL] | IC50 (CCD-1059Sk cells) [µM] | MIC [2] [µg/mL] | IC50 (T98G cells) [µM] | MIC (P. aeruginosa ATCC 9027) [µg/mL] | MIC (M. luteus ATCC 10240) [µg/mL] | MIC (C. glabrata ATCC 2091) [µg/mL] | MIC (B. cereus ATCC 10876) [µg/mL] | IC50 (A549 cells) [µM] | MIC (S. aureus ATCC 25923) [µg/mL] | MIC (E. faecalis ATCC 29212) [µg/mL] | MIC (C. albicans ATCC 102231) [µg/mL] | MIC [4] [µg/mL] | MIC (K. pneumoniae ATCC 13883) [µg/mL] | MIC (E. coli ATCC 25922) [µg/mL] | also measured
O.[Cl][Cd][Cl].c1cc(-c2nc3ccncc3[nH]2)ccn1 [C1, Cd(L1)Cl2∙H2O] |  |  |  |  |  |  |  |  |  |  |  |  |  |  |  |  |  |  | MIC, P. mirabilis ATCC 12453 (P. mirabilis ATCC 12453; Gram-negative bacteria): 1000 µg/mL; MIC, S. epidermidis ATCC 12228 [1]: 250 µg/mL; MIC, B. subtilis ATCC 6633 (B. subtilis ATCC 6633): 7.8 µg/mL; MIC, S. typhimurium ATCC 14028 [2]: 1000 µg/mL; MIC, P. aeruginosa ATCC 9027 (P. aeruginosa ATCC 9027; Gram-negative bacteria): >1000 µg/mL; MIC, M. luteus ATCC 10240 (M. luteus ATCC 10240): 7.8 µg/mL; MIC, C. glabrata ATCC 2091 (C. glabrata ATCC 2091; [5]): 62.5 µg/mL; MIC, B. cereus ATCC 10876 (B. cereus ATCC 10876): 500 µg/mL; MIC, S. aureus ATCC 25923 (S. aureus ATCC 25923): 500 µg/mL; MIC, E. faecalis ATCC 29212 (E. faecalis ATCC 29212): 125 µg/mL; MIC, C. albicans ATCC 102231 (C. albicans ATCC 102231; [5]): 500 µg/mL; solubility in culture medium [3]: Not determined due to low solubility in culture medium; MIC, C. parapsilosis ATCC 22019 [4]: 15.6 µg/mL; MIC, K. pneumoniae ATCC 13883 (K. pneumoniae ATCC 13883; Gram-negative bacteria): 1000 µg/mL; MIC, E. coli ATCC 25922 (E. coli ATCC 25922; Gram-negative bacteria): 1000 µg/mL
c1cnc2[nH]c(-c3ccncc3)nc2c1 [L2] | 1000 (≈ 5.1 mM) | 1000 (≈ 5.1 mM) | 415 ± 17 | 500 (≈ 2.55 mM) | > 509 | 1000 (≈ 5.1 mM) | 178 ± 7.3 | > 1000 | 250 (≈ 1.27 mM) | > 1000 | 250 (≈ 1.27 mM) | 220 ± 11 | 1000 (≈ 5.1 mM) | 1000 (≈ 5.1 mM) | 1000 (≈ 5.1 mM) | > 1000 | > 1000 | 1000 (≈ 5.1 mM) | 
c1cncc(-c2nc3cccnc3[nH]2)c1 [L3] | > 1000 | > 1000 | > 509 | 1000 (≈ 5.1 mM) | > 509 | > 1000 | > 509 | > 1000 | 500 (≈ 2.55 mM) | > 1000 | 1000 (≈ 5.1 mM) | > 509 | > 1000 | > 1000 | > 1000 | 1000 (≈ 5.1 mM) | > 1000 | > 1000 | 
Brc1cnc2[nH]c(-c3cccnc3)nc2c1 [L4] | > 1000 | 1000 (≈ 3.63 mM) | > 362 | 1000 (≈ 3.63 mM) | > 362 | > 1000 | > 362 | > 1000 | > 1000 | > 1000 | 1000 (≈ 3.63 mM) | > 362 | > 1000 | 1000 (≈ 3.63 mM) | 500 (≈ 1.82 mM) | 1000 (≈ 3.63 mM) | > 1000 | > 1000 | 
